Test results reported in US20240116985A1, “STAPLED PEPTIDES AND METHODS THEREOF” (priority 2020, published 2024).
Converted amounts (≈) assume the structure as drawn. Like-named read-outs stand apart in the source and are kept apart here.

Columns and labels:
[1] = target: T1, full-length beta-Catenin (Uniprot ID P35222) (Homo sapiens, UniProt P35222); assay: Fluorescence polarization IC50 (beta-catenin / 5FAM-TCF4 10-53 competition); type: binding
T1 construct: 10 nM full-length beta-Catenin (Uniprot ID P35222)
T1 sequence (P35222 1-781): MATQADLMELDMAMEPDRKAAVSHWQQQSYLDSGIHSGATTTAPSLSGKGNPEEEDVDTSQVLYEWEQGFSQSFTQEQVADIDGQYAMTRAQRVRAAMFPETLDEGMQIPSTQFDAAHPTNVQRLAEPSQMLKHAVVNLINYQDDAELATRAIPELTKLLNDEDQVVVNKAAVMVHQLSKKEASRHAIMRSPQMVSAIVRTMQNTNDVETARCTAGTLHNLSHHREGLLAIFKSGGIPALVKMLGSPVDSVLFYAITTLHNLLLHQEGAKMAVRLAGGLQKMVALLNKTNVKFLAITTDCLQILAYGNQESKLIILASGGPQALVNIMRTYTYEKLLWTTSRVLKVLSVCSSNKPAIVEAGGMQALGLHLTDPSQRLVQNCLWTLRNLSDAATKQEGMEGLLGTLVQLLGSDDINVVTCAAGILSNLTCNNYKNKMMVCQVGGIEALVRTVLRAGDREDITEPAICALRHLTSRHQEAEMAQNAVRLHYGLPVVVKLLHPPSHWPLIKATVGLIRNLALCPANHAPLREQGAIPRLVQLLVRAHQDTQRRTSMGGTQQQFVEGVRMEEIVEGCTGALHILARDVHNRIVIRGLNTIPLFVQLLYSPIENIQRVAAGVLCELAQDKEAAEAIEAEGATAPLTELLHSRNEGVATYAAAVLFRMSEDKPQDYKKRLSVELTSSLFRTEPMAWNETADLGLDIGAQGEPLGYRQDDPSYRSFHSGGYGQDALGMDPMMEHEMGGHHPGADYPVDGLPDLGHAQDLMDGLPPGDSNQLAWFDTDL

CHI Log D procedure = type: physicochemical; settings: for chromatographic logD: pH 7.4, CHI Log D; for CHI Log D: pH 7.4
Solubility in PBS = type: physicochemical
How it was run: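 The PBS solution was ultracentrifuged and the supernatant analyzed by HPLC. Its peak area was divided by that of a 50 μM peptide DMSO reference injection and multiplied by 50 uM to give solubility.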

[2] = Table E2-1, read-out: beta-Catenin FP IC50
[3] = fluorescence polarization, beta-catenin, read-out: FP EC50

| SMILES | IC50 [1, 2] [nM] | chromatographic logD (CHI Log D procedure) | Solubility (Solubility in PBS; Solubility (uM)) [µM] | IC50 [1, 3] [nM] | CHI Log D (CHI Log D procedure) | Solubility (Solubility in PBS) [µM] |
| --- | --- | --- | --- | --- | --- | --- |
| CC(=O)N1CCC[C@]12CC=CCCCC1(CCCC=CCCCCCC[C@@](C)(C(=O)N[C@@H](Cc3cccc(F)c3)C(=O)N[C@@H](Cc3csc4ccccc34)C(=O)N[C@@H](CCC(N)=O)C(N)=O)NC(=O)[C@H](C)NC(=O)[C@H](Cc3ccccc3)NC(=O)[C@H](C)NC(=O)[C@H](C)NC(=O)[C@H](CC(=O)O)NC(=O)[C@H](CC(=O)O)NC1=O)NC(=O)[C@H](C)NC(=O)[C@H](CC(=O)O)NC2=O (stereo partly drawn) [I-371, Ac-PL3-Asp-Ala-B5-Asp-Asp-Ala-Ala-Phe-Ala-S8-3FF-BztA-Gln-NH2] | 1390 | 2.14 | 48 (≈ 85.8 µg/mL) |  |  |  |
| CC(=O)N1CCC[C@]12CC=CCCCC1(CCCC=CCCCCCC[C@@](C)(C(=O)N[C@@H](Cc3cccc(F)c3)C(=O)N[C@@H](Cc3csc4ccccc34)C(=O)N[C@@H](CCC(N)=O)C(N)=O)NC(=O)[C@H](C)NC(=O)[C@H](Cc3ccccc3)NC(=O)[C@H](C)NC(=O)[C@H](C)NC(=O)[C@H](CCC(=O)O)NC(=O)[C@H](CC(=O)O)NC1=O)NC(=O)[C@H](C)NC(=O)[C@H](CC(=O)O)NC2=O (stereo partly drawn) [I-372, Ac-PL3-Asp-Ala-B5-Asp-Glu-Ala-Ala-Phe-Ala-S8-3FF-BztA-Gln-NH2] | 2090 | 2.17 | 44 (≈ 79.3 µg/mL) |  |  |  |
| CC(=O)N1CCC[C@]12CC=CCCCC1(CCCC=CCCCCCC[C@@](C)(C(=O)N[C@@H](Cc3ccccc3)C(=O)N[C@@H](Cc3csc4ccccc34)C(=O)N[C@@H](CCC(N)=O)C(N)=O)NC(=O)[C@H](C(C)C)NC(=O)[C@H](Cc3cccc(C(F)(F)F)c3)NC(=O)[C@H](C)NC(=O)[C@H](C)NC(=O)[C@H](CC(=O)O)NC(=O)[C@H](CC(=O)O)NC1=O)NC(=O)[C@H](C)NC(=O)[C@H](CC(=O)O)NC2=O (stereo partly drawn) [I-373, Ac-PL3-Asp-Ala-B5-Asp-Asp-Ala-Ala-3F3MeF-Val-S8-Phe-BztA-Gln-NH2] | 945 | 2.3 | 26 (≈ 48.5 µg/mL) |  |  |  |
| CC(=O)N1CCC[C@]12CC=CCCCC1(CCCC=CCCCCCC[C@@](C)(C(=O)N[C@@H](Cc3ccccc3)C(=O)N[C@@H](Cc3csc4ccccc34)C(=O)N[C@@H](CCC(N)=O)C(N)=O)NC(=O)[C@H](C)NC(=O)[C@H](Cc3cccc(C(F)(F)F)c3)NC(=O)[C@H](C)NC(=O)[C@H](C)NC(=O)[C@H](CC(=O)O)NC(=O)[C@H](CC(=O)O)NC1=O)NC(=O)[C@H](C)NC(=O)[C@H](CC(=O)O)NC2=O (stereo partly drawn) [I-374, Ac-PL3-Asp-Ala-B5-Asp-Asp-Ala-Ala-3F3MeF-Ala-S8-Phe-BztA-Gln-NH2] | 3010 |  |  | 3010 | 2.242 | 49 (≈ 90.1 µg/mL) |
| CC(=O)N1CCC[C@]12CC=CCCCC1(CCCC=CCCCCCC[C@@](C)(C(=O)N[C@@H](Cc3ccccc3)C(=O)N[C@@H](Cc3csc4ccccc34)C(=O)N[C@@H](CCC(N)=O)C(N)=O)NC(=O)[C@H](C)NC(=O)[C@H](Cc3cccc(C(F)(F)F)c3)NC(=O)[C@H](C)NC(=O)[C@H](C)NC(=O)[C@H](CC(=O)O)NC(=O)[C@H](CC(=O)O)NC1=O)NC(=O)[C@H](C)NC(=O)[C@H](CC(=O)O)NC2=O (stereo partly drawn) [I-375, Ac-PL3-Asp-Ala-B5-Asp-Asp-Ala-Ala-3F3MeF-Ala-S8-Phe-BztA-Gln-NH2] |  |  |  | 3010 | 2.242 | 49 (≈ 90.1 µg/mL) |
| CC(=O)N1CCC[C@]12CC=CCCCC1(CCCC=CCCCCCC[C@@](C)(C(=O)N[C@@H](Cc3ccccc3)C(=O)N[C@@H](Cc3csc4ccccc34)C(=O)N[C@@H](CCC(N)=O)C(N)=O)NC(=O)[C@H](C)NC(=O)[C@H](Cc3cccc(C(F)(F)F)c3)NC(=O)[C@H](C)NC(=O)[C@H](C)NC(=O)[C@H](CC(=O)O)NC(=O)[C@H](CC(=O)O)NC1=O)NC(=O)[C@H](C)NC(=O)[C@H](CC(=O)O)NC2=O (stereo partly drawn) [I-376, Ac-PL3-Asp-Ala-B5-Asp-Asp-Ala-Ala-3F3MeF-Ala-S8-Phe-BztA-Gln-NH2] | 1320 |  |  | 1320 | 2.296 | 48 (≈ 88.2 µg/mL) |
| CC(=O)N1CCC[C@]12CC=CCCCC1(CCCC=CCCCCCC[C@@](C)(C(=O)N[C@@H](Cc3ccccc3)C(=O)N[C@@H](Cc3csc4ccccc34)C(=O)N[C@@H](CCC(N)=O)C(N)=O)NC(=O)[C@H](C)NC(=O)[C@H](Cc3cccc(C(F)(F)F)c3)NC(=O)[C@H](C)NC(=O)[C@H](C)NC(=O)[C@H](CC(=O)O)NC(=O)[C@H](CC(=O)O)NC1=O)NC(=O)[C@H](C)NC(=O)[C@H](CC(=O)O)NC2=O (stereo partly drawn) [I-377, Ac-PL3-Asp-Ala-B5-Asp-Asp-Ala-Ala-3F3MeF-Ala-S8-Phe-BztA-Gln-NH2] |  |  |  | 1320 | 2.296 | 48 (≈ 88.2 µg/mL) |
| CC(=O)N1CCC[C@]12CC=CCCCC1(CCCC=CCCCCCC[C@@](C)(C(=O)N[C@@H](Cc3ccccc3)C(=O)N[C@@H](Cc3csc4ccccc34)C(=O)N[C@@H](CCC(N)=O)C(N)=O)NC(=O)[C@H](CCC(N)=O)NC(=O)[C@H](Cc3cccc(C(F)(F)F)c3)NC(=O)[C@H](C)NC(=O)[C@H](C)NC(=O)[C@H](CC(=O)O)NC(=O)[C@H](CC(=O)O)NC1=O)NC(=O)[C@H](C)NC(=O)[C@H](CC(=O)O)NC2=O (stereo partly drawn) [I-378, Ac-PL3-Asp-Ala-B5-Asp-Asp-Ala-Ala-3F3MeF-Gln-S8-Phe-BztA-Gln-NH2] | 1340 |  |  | 1340 | 2.143 | 50 (≈ 94.8 µg/mL) |
| CC(=O)N1CCC[C@]12CC=CCCCC1(CCCC=CCCCCCC[C@@](C)(C(=O)N[C@@H](Cc3ccccc3)C(=O)N[C@@H](Cc3csc4ccccc34)C(=O)N[C@@H](CCC(N)=O)C(N)=O)NC(=O)[C@H](CCC(N)=O)NC(=O)[C@H](Cc3cccc(C(F)(F)F)c3)NC(=O)[C@H](C)NC(=O)[C@H](C)NC(=O)[C@H](CC(=O)O)NC(=O)[C@H](CC(=O)O)NC1=O)NC(=O)[C@H](C)NC(=O)[C@H](CC(=O)O)NC2=O (stereo partly drawn) [I-379, Ac-PL3-Asp-Ala-B5-Asp-Asp-Ala-Ala-3F3MeF-Gln-S8-Phe-BztA-Gln-NH2] |  |  |  | 1340 | 2.143 | 50 (≈ 94.8 µg/mL) |
| CC(=O)N1CCC[C@]12CC=CCCCC1(CCCC=CCCCCCC[C@@](C)(C(=O)N[C@@H](Cc3ccccc3)C(=O)N[C@@H](Cc3csc4ccccc34)C(=O)N[C@@H](CCC(N)=O)C(N)=O)NC(=O)[C@H](CCC(N)=O)NC(=O)[C@H](Cc3cccc(C(F)(F)F)c3)NC(=O)[C@H](C)NC(=O)[C@H](C)NC(=O)[C@H](CC(=O)O)NC(=O)[C@H](CC(=O)O)NC1=O)NC(=O)[C@H](C)NC(=O)[C@H](CC(=O)O)NC2=O (stereo partly drawn) [I-380, Ac-PL3-Asp-Ala-B5-Asp-Asp-Ala-Ala-3F3MeF-Gln-S8-Phe-BztA-Gln-NH2] | 552 |  |  | 552 | 2.19 | 49 (≈ 92.9 µg/mL) |
| CC(=O)N1CCC[C@]12CC=CCCCC1(CCCC=CCCCCCC[C@@](C)(C(=O)N[C@@H](Cc3cccc(F)c3)C(=O)N[C@@H](Cc3csc4ccccc34)C(=O)N[C@@H](CCC(N)=O)C(N)=O)NC(=O)[C@H](C(C)C)NC(=O)[C@H](Cc3ccccc3)NC(=O)[C@H](C)NC(=O)[C@H](C)NC(=O)[C@H](CC(N)=O)NC(=O)[C@H](CC(=O)O)NC1=O)NC(=O)[C@H](C)NC(=O)[C@H](CC(=O)O)NC2=O (stereo partly drawn) [I-381, Ac-PL3-Asp-Ala-B5-Asp-Asn-Ala-Ala-Phe-Val-S8-3FF-BztA-Gln-NH2] | 3650 |  |  | 3650 | 2.636 | 10 (≈ 18.2 µg/mL) |
